pIC50: −log10 of the molar value.
Experiments:
Experiment in all cases: Cerep selectivity profiling, receptor antagonism
Assay type in all cases: biochemical
Serotonin 5-HT2A = Serotonin 5-HT2A (Homo sapiens, UniProt P28223); details: Serotonin 5-HT2A antagonism
Method: (§1) The pharmacological specificity of EUC-001 was assessed using the commercially available selectivity profiling services provided by Cerep (Celle l’Evescault, France). Initially, the activity of EUC-001, at a fixed concentration of 10 μM, was evaluated in a range of assays to assess pharmacological selectivity relative to other cell-surface receptors, ion channels and transport proteins. Where any significant binding was detected, further assays were performed to quantify potential non-selective activity. […] In terms of this non-specific activity, the IC50s are approximately 3.6 log units greater than that required for NK1R antagonism.
(§2) The pharmacological specificity of EUC-001 was assessed using the commercially available selectivity profiling services provided by Cerep (Celle l’Evescault, France). For initial screens, the binding of EUC-001 (synthesized by Hoffmann-La Roche, Basel, Switzerland) at a fixed concentration of 10 μM was evaluated in a range of assays to assess pharmacological selectivity relative to other cell-surface receptors, ion channels and transport proteins.
(§3) For agonist activity, results are expressed as a percentage of the control agonist response induced by the selective NK1R agonist [Sar^9, Met(O2)^11]-substance P (100 nM) for a range of concentrations of EUC-001. Antagonist activity is expressed as a percentage change in the response induced by 3 nM [Sar^9, Met(O2)^11]-SP (R&D systems) across a range of concentrations of EUC-001. The EC50 values (concentration producing a half-maximal specific response) and IC50 values (concentration causing a half-maximal inhibition of the control specific agonist response) were determined by non-linear regression analysis of the concentration–response curves generated with mean replicate values using Hill equation curve fitting (Y = D + [(A − D)/(1 + (C/C50)nH)], where Y = specific response, D = minimum specific response, A = maximum specific response, C = compound concentration, and C50 = EC50 or IC50, and nH = slope factor). This analysis was performed using custom software developed at Cerep and validated by comparison with data generated by the commercial software SigmaPlot® 4.0 for Windows® (SPSS Inc., Chicago, IL, USA). For the antagonists, the apparent dissociation constants (KB) were calculated using the modified Cheng Prusoff equation (KB = IC50/(1 + (A/EC50A)), where A = concentration of reference agonist in the assay, and EC50A = EC50 value of the reference agonist).

[1] = molecular target: T1, Muscarinic cholinergic M1 (Homo sapiens, UniProt P11229)
T1 sequence (P11229 1-460): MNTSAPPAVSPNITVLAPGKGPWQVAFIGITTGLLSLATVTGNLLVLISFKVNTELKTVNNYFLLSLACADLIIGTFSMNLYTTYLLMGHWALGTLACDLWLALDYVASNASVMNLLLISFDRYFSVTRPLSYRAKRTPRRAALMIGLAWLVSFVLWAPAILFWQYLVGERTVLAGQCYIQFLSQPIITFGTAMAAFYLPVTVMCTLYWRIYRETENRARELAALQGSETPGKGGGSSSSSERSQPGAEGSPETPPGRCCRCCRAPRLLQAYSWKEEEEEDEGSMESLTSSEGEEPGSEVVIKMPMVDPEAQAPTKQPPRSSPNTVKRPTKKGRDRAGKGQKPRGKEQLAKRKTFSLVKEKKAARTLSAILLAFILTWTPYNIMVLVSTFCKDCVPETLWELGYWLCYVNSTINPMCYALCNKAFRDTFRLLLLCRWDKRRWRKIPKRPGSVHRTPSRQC
Method: as §1, §2, §3

Melanocortin MC4 = Melanocortin MC4 (Homo sapiens, UniProt P32245)
Method: as §1, §2, §3

Histamine H2 = Histamine H2 (Homo sapiens, UniProt P25021)
Method: as §1, §2, §3

[2] = molecular target: T2, Muscarinic cholinergic M2 (Homo sapiens, UniProt P08172)
T2 sequence (P08172 1-466): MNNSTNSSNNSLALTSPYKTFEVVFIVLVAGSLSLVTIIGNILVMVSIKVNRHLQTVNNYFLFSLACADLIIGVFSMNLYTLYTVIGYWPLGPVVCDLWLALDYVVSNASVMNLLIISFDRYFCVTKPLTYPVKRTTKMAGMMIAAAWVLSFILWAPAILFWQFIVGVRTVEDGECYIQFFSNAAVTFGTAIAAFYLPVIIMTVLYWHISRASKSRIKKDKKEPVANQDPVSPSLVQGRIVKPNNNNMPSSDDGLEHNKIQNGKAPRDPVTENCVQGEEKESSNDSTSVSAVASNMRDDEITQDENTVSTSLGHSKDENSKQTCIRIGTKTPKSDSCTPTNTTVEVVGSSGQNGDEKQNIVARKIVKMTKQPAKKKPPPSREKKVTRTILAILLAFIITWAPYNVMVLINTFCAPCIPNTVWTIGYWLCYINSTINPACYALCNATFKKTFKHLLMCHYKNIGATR
Method: as §1, §2, §3

Dopamine D2S = Dopamine D2S (Homo sapiens, UniProt P14416)
Method: as §1, §2, §3

Serotonin 5-HT1B = Serotonin 5-HT1B (Homo sapiens, UniProt P28222); details: Serotonin 5-HT1B antagonism
Method: as §1, §2, §3

Dopamine D1 = Dopamine D1 (Homo sapiens, UniProt P21728)
Method: as §1, §2, §3

Adenosine A3 = molecular target: T3, Adenosine A3 (Homo sapiens, UniProt P0DMS8)
T3 sequence (P0DMS8 1-318): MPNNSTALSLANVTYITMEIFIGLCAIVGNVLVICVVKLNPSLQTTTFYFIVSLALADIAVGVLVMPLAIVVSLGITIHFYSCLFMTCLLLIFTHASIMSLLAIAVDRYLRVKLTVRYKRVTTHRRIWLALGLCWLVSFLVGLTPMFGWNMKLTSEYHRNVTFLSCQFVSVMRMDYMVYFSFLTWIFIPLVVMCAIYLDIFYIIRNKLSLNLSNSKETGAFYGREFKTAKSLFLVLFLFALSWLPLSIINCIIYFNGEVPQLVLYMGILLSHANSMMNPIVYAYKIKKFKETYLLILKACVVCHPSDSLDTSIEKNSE
Method: as §1, §2, §3

[3] = molecular target: Muscarinic cholinergic M3 (Homo sapiens, UniProt P20309)
Method: as §1, §2, §3

Serotonin 5-HT5A = Serotonin 5-HT5A (Homo sapiens, UniProt P47898); details: Serotonin 5-HT5A antagonism
Method: as §1, §2, §3

Adenosine A2A = Adenosine A2A (Homo sapiens, UniProt P29274)
Method: as §1, §2, §3

Chain of Dopamine D2S (P14416 1-414 isoform P14416-2): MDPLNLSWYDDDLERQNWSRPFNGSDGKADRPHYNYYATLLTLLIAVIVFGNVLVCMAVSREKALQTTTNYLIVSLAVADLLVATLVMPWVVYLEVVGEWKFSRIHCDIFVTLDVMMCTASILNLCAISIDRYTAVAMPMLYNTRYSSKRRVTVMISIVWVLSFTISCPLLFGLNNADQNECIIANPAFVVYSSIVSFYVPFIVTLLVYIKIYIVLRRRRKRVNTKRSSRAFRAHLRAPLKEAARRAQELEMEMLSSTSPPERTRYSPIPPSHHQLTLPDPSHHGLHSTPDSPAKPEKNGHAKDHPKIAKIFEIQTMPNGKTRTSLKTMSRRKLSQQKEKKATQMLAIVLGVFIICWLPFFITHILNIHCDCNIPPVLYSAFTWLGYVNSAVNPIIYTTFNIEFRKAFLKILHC
Chain of Serotonin 5-HT1B (P28222 whole entry): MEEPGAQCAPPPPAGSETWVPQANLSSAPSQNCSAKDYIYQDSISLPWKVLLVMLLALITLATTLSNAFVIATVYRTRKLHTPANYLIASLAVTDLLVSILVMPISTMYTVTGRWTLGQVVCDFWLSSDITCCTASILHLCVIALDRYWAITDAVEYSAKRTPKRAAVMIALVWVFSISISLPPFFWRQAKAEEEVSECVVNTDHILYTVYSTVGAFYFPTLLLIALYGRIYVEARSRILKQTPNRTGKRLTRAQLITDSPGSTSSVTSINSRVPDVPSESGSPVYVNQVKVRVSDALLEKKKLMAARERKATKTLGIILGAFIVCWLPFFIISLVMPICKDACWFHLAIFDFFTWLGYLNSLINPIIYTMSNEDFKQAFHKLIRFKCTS
Chain of Muscarinic cholinergic M3 (P20309 whole entry): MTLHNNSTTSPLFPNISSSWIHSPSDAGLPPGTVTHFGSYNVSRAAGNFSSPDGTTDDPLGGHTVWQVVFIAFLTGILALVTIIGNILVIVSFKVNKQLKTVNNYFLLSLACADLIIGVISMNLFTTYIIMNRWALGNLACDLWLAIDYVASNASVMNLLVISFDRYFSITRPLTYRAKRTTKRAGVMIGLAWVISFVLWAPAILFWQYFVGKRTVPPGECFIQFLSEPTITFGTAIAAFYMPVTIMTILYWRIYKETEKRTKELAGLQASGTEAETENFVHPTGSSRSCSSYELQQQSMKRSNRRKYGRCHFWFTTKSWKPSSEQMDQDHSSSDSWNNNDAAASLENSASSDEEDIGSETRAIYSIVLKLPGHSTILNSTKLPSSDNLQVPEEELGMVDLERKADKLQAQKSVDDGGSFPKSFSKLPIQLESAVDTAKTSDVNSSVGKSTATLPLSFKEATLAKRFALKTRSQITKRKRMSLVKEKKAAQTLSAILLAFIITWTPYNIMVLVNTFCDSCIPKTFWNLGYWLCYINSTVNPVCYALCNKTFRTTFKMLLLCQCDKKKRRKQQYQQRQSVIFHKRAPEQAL
Chain of Dopamine D1 (P21728 whole entry): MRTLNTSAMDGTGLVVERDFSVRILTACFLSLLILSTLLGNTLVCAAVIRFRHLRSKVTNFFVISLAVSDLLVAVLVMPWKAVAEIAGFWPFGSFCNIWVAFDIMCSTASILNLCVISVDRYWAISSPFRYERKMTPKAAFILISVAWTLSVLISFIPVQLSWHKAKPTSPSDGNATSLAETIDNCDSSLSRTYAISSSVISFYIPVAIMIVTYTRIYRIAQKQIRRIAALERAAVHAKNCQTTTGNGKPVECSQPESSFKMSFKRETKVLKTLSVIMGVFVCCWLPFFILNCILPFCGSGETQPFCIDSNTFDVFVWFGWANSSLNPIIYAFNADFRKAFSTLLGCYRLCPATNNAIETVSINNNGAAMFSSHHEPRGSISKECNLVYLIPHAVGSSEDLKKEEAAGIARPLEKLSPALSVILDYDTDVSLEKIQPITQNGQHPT
Chain of Serotonin 5-HT2A (P28223 whole entry): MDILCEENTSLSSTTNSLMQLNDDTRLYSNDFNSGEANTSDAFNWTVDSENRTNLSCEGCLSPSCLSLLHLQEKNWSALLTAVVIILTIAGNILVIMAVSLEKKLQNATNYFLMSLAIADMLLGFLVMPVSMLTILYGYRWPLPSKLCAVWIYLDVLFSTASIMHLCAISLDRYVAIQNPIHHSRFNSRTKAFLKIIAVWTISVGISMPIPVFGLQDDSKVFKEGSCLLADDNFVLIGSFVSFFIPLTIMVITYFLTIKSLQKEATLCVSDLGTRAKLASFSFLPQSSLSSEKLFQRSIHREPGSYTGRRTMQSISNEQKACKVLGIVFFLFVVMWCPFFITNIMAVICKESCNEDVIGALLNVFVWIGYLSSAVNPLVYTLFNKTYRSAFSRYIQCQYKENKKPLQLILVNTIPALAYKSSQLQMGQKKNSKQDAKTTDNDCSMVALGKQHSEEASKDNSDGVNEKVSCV
Chain of Serotonin 5-HT5A (P47898 whole entry): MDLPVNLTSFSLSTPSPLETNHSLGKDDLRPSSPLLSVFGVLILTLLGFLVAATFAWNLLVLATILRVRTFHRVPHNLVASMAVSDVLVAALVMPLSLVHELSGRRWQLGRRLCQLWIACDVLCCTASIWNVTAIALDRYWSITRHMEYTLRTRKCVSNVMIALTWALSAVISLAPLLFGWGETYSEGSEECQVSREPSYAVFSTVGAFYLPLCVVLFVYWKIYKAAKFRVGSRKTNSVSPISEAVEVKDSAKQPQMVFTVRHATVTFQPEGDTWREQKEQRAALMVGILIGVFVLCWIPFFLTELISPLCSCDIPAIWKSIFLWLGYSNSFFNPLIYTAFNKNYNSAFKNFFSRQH
Chain of Melanocortin MC4 (P32245 whole entry): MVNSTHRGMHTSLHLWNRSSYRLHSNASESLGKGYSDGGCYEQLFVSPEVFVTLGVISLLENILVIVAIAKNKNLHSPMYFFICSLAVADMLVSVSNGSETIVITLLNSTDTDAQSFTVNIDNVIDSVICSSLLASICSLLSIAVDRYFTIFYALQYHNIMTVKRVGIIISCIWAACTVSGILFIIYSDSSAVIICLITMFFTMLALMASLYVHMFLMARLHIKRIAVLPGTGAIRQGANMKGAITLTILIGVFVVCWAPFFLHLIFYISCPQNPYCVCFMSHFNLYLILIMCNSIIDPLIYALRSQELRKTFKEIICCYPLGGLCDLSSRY
Chain of Adenosine A2A (P29274 whole entry): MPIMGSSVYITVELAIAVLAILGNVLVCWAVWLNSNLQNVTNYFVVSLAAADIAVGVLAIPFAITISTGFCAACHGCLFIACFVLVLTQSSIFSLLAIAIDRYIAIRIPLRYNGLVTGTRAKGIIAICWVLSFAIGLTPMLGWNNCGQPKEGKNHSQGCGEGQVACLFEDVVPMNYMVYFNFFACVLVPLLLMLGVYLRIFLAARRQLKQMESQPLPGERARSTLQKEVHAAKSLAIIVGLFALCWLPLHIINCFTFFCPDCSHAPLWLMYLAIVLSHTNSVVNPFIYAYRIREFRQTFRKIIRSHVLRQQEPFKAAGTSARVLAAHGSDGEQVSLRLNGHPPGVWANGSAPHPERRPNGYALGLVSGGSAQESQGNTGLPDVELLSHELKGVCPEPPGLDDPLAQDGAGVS
Chain of Histamine H2 (P25021 whole entry): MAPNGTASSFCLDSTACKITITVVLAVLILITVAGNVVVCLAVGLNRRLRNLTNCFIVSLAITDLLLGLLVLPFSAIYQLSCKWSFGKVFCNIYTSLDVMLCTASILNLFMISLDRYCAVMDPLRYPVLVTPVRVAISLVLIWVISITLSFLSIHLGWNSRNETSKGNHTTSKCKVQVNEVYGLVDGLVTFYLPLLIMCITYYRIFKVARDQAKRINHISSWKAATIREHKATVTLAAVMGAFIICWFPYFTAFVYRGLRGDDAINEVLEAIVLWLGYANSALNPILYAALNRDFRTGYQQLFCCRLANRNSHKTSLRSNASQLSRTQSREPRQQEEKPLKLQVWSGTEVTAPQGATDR

Work on `Cc1ccccc1-c1cc(N2CCN(C)CC2)ncc1C(=O)N(C)Cc1cc(C(F)(F)F)cc(C(F)(F)F)c1` [EUC-001, N-(3,5-Bis-trifluoromethyl-benzyl)-N-methyl-6-(4-methyl-piperazine-1-yl)-4-o-tolyl-nicotinamide] yielded a pIC50 (Serotonin 5-HT2A) of 4.82, a pIC50 [1] of 5.48 and a pIC50 (Melanocortin MC4) of 4.89. The pIC50 (Histamine H2) was 4.80, the pIC50 [2] was 4.52 and the “IC50 (M)” value (Dopamine D2S) was “Not calculable”. For the same compound, the pIC50 (Serotonin 5-HT1B) was 5.21, the pIC50 (Dopamine D1) was 4.80 and the “IC50 (M)” value (Adenosine A3) was “Not calculable”. The pIC50 [3] was 5.48, the pIC50 (Serotonin 5-HT5A) was 5.40 and the pIC50 (Adenosine A2A) was 4.52.
